Measurements taken from US8247230B2, “Plant stem cell line derived from cambium of herbaceous plant with storage root and method for isolating the same” (Unhwa Corporation, priority 2007, dated 2012).

Columns and labels:
[1] = tested on: carrot root cambium-containing explant; assay: Cell line induction in carrot explant with varying kinds of auxins in induction medium; format: cell-based, Daucus carota L.; details: for Cell line induction pattern (in words): auxin used in induction medium; for Reaction with respect to cambium: auxins at the same concentration in induction medium, after osmotic stress
Experimental: A carrot (Daucus carota L.) was prepared and surface-sterilized in the same manner as in Example 1-1. Then, the prepared sample was treated with osmotic stress in the same manner as in Example 1-2 and Example 1-3, and then a cambium-derived cell line was induced from the carrot.
Also, other plant hormone auxins, including IAA, IBA, picloram, 2,4-D, CPA and NAA, were used at the same concentration to examine the influence of the hormone used in induction medium.

[2] = tested on: ginseng cambium-derived cell line; assay: Proliferation of ginseng cambium-derived cell line in growth medium; format: cell-based; details: growth medium containing IAA, not 2,4-D
Experimental: As shown in FIG. 3(a), after the explant was cultured in medium 2 of Example 1 to necrotize tissues other than the cambium, it was subcultured in medium 3. Medium 3 is an optimal medium for the proliferation of the cambium-derived cell line and is based on the basal salt composition shown in Table 6. When the cambium-derived homogeneous cell line having the ability to divide was cultured in medium 3, it continually divided and proliferated. After about 10-20 days of the culture, the cambium-derived cell line was isolated, and the isolated cell line was allowed to proliferate again in the same medium (medium 3).

[3] = tested on: true wild ginseng adventitious root cambium-derived cell line; assay: Proliferation of true wild ginseng adventitious root cambium-derived cell line in growth medium; format: cell-based; details: hormone used instead of 2,4-D in medium 3
Excerpt: As a result, the cambium-derived homogeneous cell line having the ability to divide continually divided and proliferated, and thus after about 10-20 days of the culture, the cambium-derived homogeneous cell line having the ability to divide could be isolated. The true wild ginseng cambium-derived homogeneous cell line thus isolated was allowed to proliferate again by culturing it in the same medium. […] Meanwhile, in the true wild ginseng adventitious root cambium-containing explant in Example 2-1, the cell line was allowed to proliferate in the same manner as in Example 2, except that IBA was used instead of 2,4-D in Table 7.

MMP-1 = assay: Inhibition of MMP-1 expression caused by UV light (UVB) in NHF cells; format: cell-based, human; details: 10 uM, 40 mJ UVB, 48 hours, No UV = 100, Control UV = 230
Experimental: When MMPs are increased due to exposure to UV light, the increased MMPs degrade skin collagen to form skin wrinkles. Thus, the following test was carried out in order to examine whether MMP-1 expression increased due to UV light is inhibited by an extract or culture medium of the true wild ginseng cambium-derived homogeneous cell line.
NHF (normal human fibroblast) cells used in the test were isolated from the fetal penis prepuce and cultured. The culture medium was prepared by adding 10% fetal bovine serum (FBS, Hyclone, Logan, Utah, USA), inactivated by heating at 56° C. for 30 minutes, 100 unit/ml of penicillin, 100 μg/ml of streptomycin and 300 μg/ml of glutamine to DMEM medium (Invitroge Gibco life tech. Vienna, Austriea). The cells were cultured in the medium in a 5% CO2 incubator at a temperature of 37° C. and a humidity of 95% and subcultured at 3-4-day intervals, immediately before the cells were fused with each other.
NHF(p6) cells were dispensed into a 12-well plate at a density of 75,000 cells/well and starved for 24 hours. Then, the cells were radiated with 40 mJ of UVB and treated with varying concentrations of each sample for 48 hours. Then, an experiment was carried out using a kit (Amersham, RPN 2610). As a positive control group, 10 μM retinoic acid was used. […]

[4] = tested on: ginseng root cambium-containing explant; assay: Cell induction in ginseng explant cultured in 2,4-D-containing medium; format: cell-based; details: about 7-14 days after yellowing
Experimental: Meanwhile, in order to examine the influence of the hormone used in the induction medium, the explant was cultured in a 2,4-D-containing medium, which was not the cambium-derived cell line induction medium and has been used in the conventional culture of general ginsengs. […] In other words, it could be seen that, when 2,4-D was used, cell line was induced all other tissues, non-specifically to the cambium.
As shown in FIG. 3(b), when a general culture system containing 2,4-D was used in culture, cells were induced from various tissues (cortex, phloem, xylem, cambium, pith, etc.) present in the entire cross section, and the various cells were mixed with each other. Thus, the induced and proliferated cells had heterogeneity. […] Thus, the induced cells had homogeneity.

O=C(O)COc1ccc(Cl)cc1 [CPA]
Cell line induction pattern (in words) [1]: the cell line was induced throughout the whole explant rather than with respect to the cambium
Reaction with respect to cambium [1]: −

O=C(O)Cc1c[nH]c2ccccc12 [IAA, indole-3-acetic acid]
Cell line induction pattern (in words) [1]: the homogeneous cell line was induced with respect to the cambium
Proliferation in growth medium (in words) [2]: did not proliferate and showed a tendency to differentiate
Proliferation in growth medium (in words) [3]: did not differentiate and showed a tendency to differentiate

CC1=C(/C=C/C(C)=C/C=C/C(C)=C/C(=O)O)C(C)(C)CCC1 [Retinoic acid, retinoic acid]
MMP-1 expression, % of control (MMP-1): 85 % of control

O=C(O)CCCc1c[nH]c2ccccc12 [IBA, indole-3-butyric acid]
Cell line induction pattern (in words) [1]: the homogeneous cell line was induced with respect to the cambium
Proliferation in growth medium (in words) [3]: did not differentiate and proliferated

O=C(O)COc1ccc(Cl)cc1Cl [2,4-D, 2,4-dichlorophenoxyacetic acid]
Cell line induction pattern (in words) [1]: the cell line was induced throughout the whole explant rather than with respect to the cambium
Reaction with respect to cambium [1]: −
Cell induction pattern (in words) [4]: cells were induced throughout the whole cross section

O=C(O)Cc1cccc2ccccc12 [NAA]
Root induction with the passage of time (in words) ([1]; after about 4 weeks): a root was induced and differentiated in the cambium
Cell line induction pattern (in words) [1]: the cell line was induced throughout the whole explant rather than with respect to the cambium
Reaction with respect to cambium [1]: −

Nc1c(Cl)c(Cl)nc(C(=O)O)c1Cl [Picloram, picloram]
Cell line induction pattern (in words) [1]: the cell line was induced throughout the whole explant rather than with respect to the cambium
Reaction with respect to cambium [1]: −
